Measured values reported in ChEMBL document CHEMBL1681719, “Synthesis and evaluation of 1,5-diaryl-substituted tetrazoles as novel selective cyclooxygenase-2 (COX-2) inhibitors” (Bioorg Med Chem Lett, 2011).

Experiments:
[1] = target: T1, Prostaglandin G/H synthase 2 (Homo sapiens, UniProt P35354); test: Inhibition of human recombinant COX-2 by fluorescence assay
T1 sequence (P35354 whole entry): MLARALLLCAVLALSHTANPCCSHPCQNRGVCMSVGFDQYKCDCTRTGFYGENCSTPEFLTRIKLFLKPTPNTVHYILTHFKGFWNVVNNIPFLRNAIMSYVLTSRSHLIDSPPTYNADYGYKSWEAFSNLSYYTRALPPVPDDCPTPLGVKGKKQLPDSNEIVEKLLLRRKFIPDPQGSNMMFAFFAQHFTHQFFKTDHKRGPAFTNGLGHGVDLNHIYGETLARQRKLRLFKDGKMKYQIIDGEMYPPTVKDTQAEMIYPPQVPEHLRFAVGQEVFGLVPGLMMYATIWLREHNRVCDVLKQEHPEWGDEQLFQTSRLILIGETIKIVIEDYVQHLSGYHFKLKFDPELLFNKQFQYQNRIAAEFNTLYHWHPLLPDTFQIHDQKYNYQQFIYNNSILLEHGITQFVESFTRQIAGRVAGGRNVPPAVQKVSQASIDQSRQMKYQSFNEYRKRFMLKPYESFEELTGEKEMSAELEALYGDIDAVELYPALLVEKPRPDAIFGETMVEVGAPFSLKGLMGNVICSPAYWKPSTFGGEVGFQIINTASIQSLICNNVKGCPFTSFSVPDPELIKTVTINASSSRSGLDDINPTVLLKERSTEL

[2] = Selectivity index ratio of IC50 for ovine COX-1 to IC50 for human recombinant COX-2
[3] = target: T2, Prostaglandin G/H synthase 1 (Ovis aries, UniProt P05979); test: Inhibition of ovine COX-1 by fluorescence assay
T2 sequence (P05979 whole entry): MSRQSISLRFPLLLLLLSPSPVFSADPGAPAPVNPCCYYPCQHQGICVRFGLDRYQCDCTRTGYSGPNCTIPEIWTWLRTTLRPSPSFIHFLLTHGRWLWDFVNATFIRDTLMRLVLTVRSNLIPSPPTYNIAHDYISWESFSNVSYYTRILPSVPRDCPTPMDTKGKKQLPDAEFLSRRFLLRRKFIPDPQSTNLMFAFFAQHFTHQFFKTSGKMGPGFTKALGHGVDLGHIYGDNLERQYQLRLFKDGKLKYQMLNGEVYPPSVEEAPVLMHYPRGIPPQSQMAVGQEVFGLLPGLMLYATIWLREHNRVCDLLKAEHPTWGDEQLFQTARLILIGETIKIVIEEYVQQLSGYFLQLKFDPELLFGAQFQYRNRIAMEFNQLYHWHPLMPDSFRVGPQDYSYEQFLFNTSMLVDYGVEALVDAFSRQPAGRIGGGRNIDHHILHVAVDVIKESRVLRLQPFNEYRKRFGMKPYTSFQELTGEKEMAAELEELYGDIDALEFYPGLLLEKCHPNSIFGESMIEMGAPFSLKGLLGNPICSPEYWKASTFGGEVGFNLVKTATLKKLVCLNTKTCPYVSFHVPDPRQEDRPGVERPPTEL

| Structure (SMILES) | IC50 [1] | Ratio IC50 [2] | IC50 [3] |
| --- | --- | --- | --- |
| CS(=O)(=O)c1ccc(-c2nnnn2-c2ccccc2)cc1 | 200 µM | 18.5 | 3700 µM |
| COc1ccc(-n2nnnc2-c2ccc(S(C)(=O)=O)cc2)cc1 | 2 µM | 210 | 420 µM |
| CS(=O)(=O)c1ccc(-c2nnnn2-c2ccc(Cl)cc2)cc1 | 110 µM | 4.5 | 500 µM |

The remaining molecules from weak to strong by IC50 [1], led by results:

| IC50 [1] | Ratio IC50 [2] | IC50 [3] | Structure (SMILES) |
| --- | --- | --- | --- |
| 45 µM | 180 | 8100 µM | Cc1ccc(-n2nnnc2-c2ccc(S(C)(=O)=O)cc2)cc1 |
| 2.7 µM | 237 | 640 µM | CS(=O)(=O)c1ccc(-c2nnnn2-c2ccc(F)cc2)cc1 |
